Assay results taken from patent publication EP1246919B1, “PROGENITOR CELL PR[…] AND RELATED METHODS AND PRODUCTS” (ImClone Systems Incorporated, priority 1999, dated 2001).

What was measured:
Dl-FRIL = target: T1, Dl-FRIL (Lablab purpureus, UniProt Q9ZTA9); conditions: Mo et al., Glycobiology 9:173-179, 1999; cited from earlier work
T1 sequence (Q9ZTA9 9-124 limits assumed): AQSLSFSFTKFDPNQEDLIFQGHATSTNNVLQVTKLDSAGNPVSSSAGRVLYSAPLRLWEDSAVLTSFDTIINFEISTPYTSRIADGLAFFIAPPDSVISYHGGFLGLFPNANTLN
T1 sequence (Q9ZTA9 125-272 limits assumed): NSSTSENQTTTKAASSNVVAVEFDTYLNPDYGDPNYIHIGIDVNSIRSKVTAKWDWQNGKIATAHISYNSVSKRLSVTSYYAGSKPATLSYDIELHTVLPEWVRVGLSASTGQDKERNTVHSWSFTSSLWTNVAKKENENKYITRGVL

BALB/c mice [1] = experiment: Murine 5-FU chemoprotection model; assay type: in vivo; conditions: 5-FU 150 mg/kg intraperitoneally
Method: A dose regimen was established to determine whether FRIL protects mice from death resulting from hematopoietic toxicity of […]. […] This finding was consistent with the understanding that stem cells reside in the bone marrow in predominantly a quiescent state. Bone marrow cellularity in these mice was restored after 2 weeks by the recruitment of the dormant progenitors and responsive stem cells that escaped toxicity of 5-FU. Administration of a second dose of 5-FU (also at 150 mg/kg) 3-7 days after the initial dose killed those stem cells and progenitors recruited into S-phase in response to the first treatment of 5-FU (Lerner and Harrison, supra).
In this study described below, the pretreatment dose regimen for Dl-FRIL described above (5 mg/kg x 4 days) was selected based on the requirement of treating animals with cytokines for several days prior to starting chemotherapy and because Dl-FRIL-treated mice easily tolerated doses (5 mg/kg) that were 10- to 100-fold greater than that used for cytokines. […]

BALB/c mice [2] = conditions: single dose of 5-FU (150 mg/kg); Lerner and Harrison; cited from earlier work
[3] = target: FLT3 receptor on FLT3-transfected 3T3 cells (murine FLT3 extracellular portion/human Fms chimera or full length human receptor, not told apart at that place); experiment: cell-based or functional assay

OC[C@H]1O[C@H](O[C@H]2O[C@H](CO)[C@@H](O)[C@H](O)[C@H]2O)[C@H](O)[C@@H](O)[C@@H]1O [α,α-trehalose]
greater potency than mannose (Dl-FRIL): 3.6 fold

O=c1[nH]cc(F)c(=O)[nH]1 [5-FU, 5-fluorouracil]
deaths after a single dose (BALB/c mice [1]): No mice died
reduction of bone marrow cellularity (BALB/c mice [2]): > 90%

Pv-FRIL, mannose-binding lectin isolated from red kidney bean (Phaseolus vulgaris) extract, or purified from PHA-LCM
Specific Activity (u/mg) in the Flt3 3T3 assay, Superdex 75 fraction (Pv-FRIL purified to near homogeneity from PHA-LCM) [3]: 244000 u/mg
